The test system of assay [1] is Cryptococcus neoformans ATCC 208821. Briefly: CO-ADD MIC, antifungal assay (CLSI). It is filed as cell-based. The settings on record: Yeast Nitrogen Base broth, 24 h 35 °C, by CO-ADD. How it is done:
(§1) Fungi strains were cultured for 3 days on Yeast Extract-Peptone Dextrose (YPD) agar at 30 °C. A yeast suspension of 1 × 10^6 to 5 × 10^6 cells/mL (as determined by OD530) was prepared from five colonies. These stock suspensions were diluted with Yeast Nitrogen Base (YNB) broth to a final concentration of 2.5 × 10^3 CFU/mL. […] Plates were covered and incubated at 35 °C for 24 h without shaking.

Assay [2] concerns Candida albicans ATCC 90028. The assay is described as follows: CO-ADD MIC, antifungal assay (CLSI). It is filed as cell-based. The settings on record: Yeast Nitrogen Base broth, 24 h 35 °C, by CO-ADD. The protocol: as §1
Assay [3] relates to Moraxella osloensis RV A2/2001. The settings on record: CFU assay, 10 mM NaP, pH 7.3, 1% TSB.
For assay [4], the system named is Prevotella oralis ATCC 33321. Briefly: CFU assay of antimicrobial activity. It is filed as cell-based. To be noted: 10 mM NaP, pH 7.3, 1% TSB. The protocol: All purified peptides and recombinant proteins were applied using a colony forming unit (CFU) assay in different media. Bacteria were grown to early log-phase in BHI, washed either with 10 mM Na-P, pH 7.4/1% TSB or pH 5.5/1% TSB, or pH 5.5 without TSB or BHI, and adjusted to a concentration of 10^4–10^5 colony forming units (CFU)/ml. For cell number control, 100 µl aliquots were diluted 1:10, 1:100 and 1:1000 and plated in duplicates on BHI agar plates. To 100 µl aliquots of the bacteria, suspended in the respective medium (10 mM Na-P buffer pH 7,0–7,4/ 1% (w/v) TSB; 10 mM Na-P buffer pH 5,5/ 1% (w/v) TSB; 10 mM Na-P buffer pH 7,0–7,4/ 1% (w/v) TSB pH 7,0–7,4/ 0,25% (w/v) glucose; […], respectively), 10 µl of a solution of the peptide or protein (two-fold dilutions, from 300 µg/ml or 150 µg/ml down to 19 ng/ml), dissolved in 0.01% (v/v) acetic acid, were added.
(§2) Then bacteria were incubated for 2 h at ambient temperature, if not otherwise stated. 10 µl of 0.01% (v/v) acetic acid, added to 100 µl aliquots of the bacteria in the respective medium, served as negative control. From each test, 1:10 and 1:100 dilutions were generated and plated as duplicates of 100 µl aliquots on BHI agar plates. After 16 h incubation at 37 °C, CFU were counted using a colony counter (Bio Kobe, Japan) and expressed as mean of the duplicate estimation to achieve a complete dose-response curve. All experiments were performed at serial dilutions in a concentration range of 100 µg/mL −25 ng/mL for recombinant HRNR fragments and 300 or 150 µg/mL–19 ng/mL for synthetic peptides.

In assay [5] the test system is Klebsiella pneumoniae ATCC 13883. The settings on record: CFU assay, 10 mM NaP.
The subject of assay [6] is Peptostreptococcus magnus ATCC 15794. The assay is described as follows: CFU assay of antimicrobial activity. To be noted: 10 mM NaP, pH 7.3, 1% TSB. In kind it is cell-based, Peptostreptococcus magnus (now Finegoldia magna). The protocol: (§3) All purified peptides and recombinant proteins were applied using a colony forming unit (CFU) assay in different media. Bacteria were grown to early log-phase in BHI, washed either with 10 mM Na-P, pH 7.4/1% TSB or pH 5.5/1% TSB, or pH 5.5 without TSB or BHI, and adjusted to a concentration of 10^4–10^5 colony forming units (CFU)/ml. For cell number control, 100 µl aliquots were diluted 1:10, 1:100 and 1:1000 and plated in duplicates on BHI agar plates. To 100 µl aliquots of the bacteria, suspended in the respective medium (10 mM Na-P buffer pH 7,0–7,4/ 1% (w/v) TSB; 10 mM Na-P buffer pH 5,5/ 1% (w/v) TSB; 10 mM Na-P buffer pH 7,0–7,4/ 1% (w/v) TSB pH 7,0–7,4/ 0,25% (w/v) glucose; 10 mM Na-P buffer pH 5,5/ 0,25% (w/v) glucose, respectively), 10 µl of a solution of the peptide or protein (two-fold dilutions, from 300 µg/ml or 150 µg/ml down to 19 ng/ml), dissolved in 0.01% (v/v) acetic acid, were added.
Then bacteria were incubated for 2 h at ambient temperature, if not otherwise stated. 10 µl of 0.01% (v/v) acetic acid, added to 100 µl aliquots of the bacteria in the respective medium, served as negative control. […] After 16 h incubation at 37 °C, CFU were counted using a colony counter (Bio Kobe, Japan) and expressed as mean of the duplicate estimation to achieve a complete dose-response curve. […]

Assay [7] has as its system Streptococcus pneumoniae ATCC 33400. Briefly: CFU assay of antimicrobial activity. In kind it is cell-based. The settings on record: 10 mM NaP, pH 7.3, 1% TSB. How it is done:
as §3, with “[…];” for “10 mM Na-P buffer pH 5,5/ 1% (w/v) TSB;”
as §2

Assay [8] concerns Streptococcus pyogenes ATCC 12344. Briefly: CFU assay of antimicrobial activity. It is filed as cell-based. The settings on record: 10 mM NaP, pH 7.3, 1% TSB. The protocol: as §3, with “[…];” for “10 mM Na-P buffer pH 5,5/ 1% (w/v) TSB;”
as §2

Assay [9] relates to Burkholderia cepacia ATCC 25416. The settings on record: CFU assay, 10 mM NaP.
The subject of assay [10] is Staphylococcus epidermidis ATCC 14990. The assay is described as follows: CFU assay of antimicrobial activity. It is filed as cell-based. The settings on record: 10 mM NaP. How it is done:
as §3, §2

For assay [11], the system named is Salmonella typhimurium ATCC 13311. The assay is described as follows: CFU assay of antimicrobial activity. In kind it is cell-based. The settings on record: 10 mM NaP, pH 7.3, 1% TSB. How it is done:
as §3, §2

Assay [12] concerns Lactobacillus crispatus DSM 20584. Briefly: CFU assay of antimicrobial activity. In kind it is cell-based. The settings on record: 10 mM NaP, pH 7.3, 1% TSB. How it is done: as §3, §2
Assay [13] deals with Propionibacterium acnes ATCC 6919. Briefly: CFU assay of antimicrobial activity. In kind it is cell-based. The settings on record: 10 mM NaP. How it is done: as §3, §2

≈ marks a conversion by molar mass, not a printed value. Like-named read-outs stand apart in the source and are kept apart here. Peptide text beside a SMILES is read from it. * marks the point of attachment. Palmitoyl = CCCCCCCCCCCCCCCC(=O)*

Take `CCCCCCCCCCCCCCCC(=O)NCC(=O)N[C@@H](CCCNC(=N)N)C(=O)N[C@@H](CCCNC(=N)N)C(=O)NCC(=O)NCC(=O)N[C@@H](CCCNC(=N)N)C(=O)NCC(=O)NCC(=O)N[C@@H](CCCNC(=N)N)C(=O)NCC(=O)N[C@@H](CCCNC(=N)N)C(=O)NCC(=O)N[C@@H](CCCNC(=N)N)C(=O)O` [Pal-GR13] (Palmitoyl-GRRGGRGGRGRGR-OH): the “Minimal inhibitory concentration (MIC)” value in assay [1] worked out at 0.25 µg/mL (≈ 0.157 µM); in [2], 4 µg/mL (≈ 2.51 µM). Also, the LD90 in assay [3] is listed as 0.59 µg/mL; in assay [4], 9.38 µg/mL; in assay [5] (pH 5.5, 0.25% glucose) it was 0.15 µg/mL; in assay [5] (pH 7.3, 1% TSB), 1.18 µg/mL; in assay [6] it was 4.7 µg/mL; in [7], 2.35 µg/mL. The LD90 in [8] is 0.15 µg/mL; in assay [9] (pH 5.5, 0.25% glucose) it was above 300 µg/mL; in assay [9] (pH 7.3, 0.25% glucose), 4.7 µg/mL; in assay [9] (pH 7.3, 1% TSB), 18.75 µg/mL; in assay [10] (pH 5.5, 0.25% glucose) it was 9.38 µg/mL; in [10] (pH 7.3, 1% TSB) it was 0.59 µg/mL. Moreover, the LD90 in assay [11] is on record as 2.35 µg/mL; in assay [12], 9.38 µg/mL; in assay [13] (pH 5.5, 0.25% glucose), 0.3 µg/mL; in [13] (pH 7.3, 0.25% glucose), 0.59 µg/mL; in assay [13] (pH 7.3, 1% TSB), 1.18 µg/mL.

For the origin of these results see article PMC6399351, “Cationic Intrinsically Disordered Antimicrobial Peptides (CIDAMPs) Represent a New Paradigm of Innate Defense with a Potential for Novel Anti-Infectives” (Scientific Reports, 2019).
